Assays:
[1] = target: WRN (BV08), human Werner helicase (Uniprot Q14191, amino acids 517-1235 with L1074F point mutation) (Homo sapiens (Human), UniProt Q14191, L1074F); assay: WRN (BV08) ADP-Glo assay; type: biochemical; conditions: class symbols A-E, read-out: ADP-Glo_hWRN_IC50
[2] = tested on: p21 induction in HCT116 cells; assay: p21 induction in HCT116 cells; type: cell-based; conditions: Homo sapiens, HCT-116, 24 h, HCT116 cells, 24 h compound incubation; read-out: P21_EC50
Outline: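 HCT116 cells, 2,000/well, treated 24 h at 37 °C with 11-point compound dilutions in duplicate. Fixed, then immunostained for p21 and GAPDH and read by near-IR imaging at 800/700 nm. Normalized to DMSO (low) and reference WRN inhibitor (high) controls; EC50 from non-linear regression.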

WRN (BV08), human Werner helicase (Uniprot Q14191, amino acids 517-1235 with L1074F point mutation), sequence (Q14191 other isoform, or with tags, fused parts or gaps L1074F (already in the parent)): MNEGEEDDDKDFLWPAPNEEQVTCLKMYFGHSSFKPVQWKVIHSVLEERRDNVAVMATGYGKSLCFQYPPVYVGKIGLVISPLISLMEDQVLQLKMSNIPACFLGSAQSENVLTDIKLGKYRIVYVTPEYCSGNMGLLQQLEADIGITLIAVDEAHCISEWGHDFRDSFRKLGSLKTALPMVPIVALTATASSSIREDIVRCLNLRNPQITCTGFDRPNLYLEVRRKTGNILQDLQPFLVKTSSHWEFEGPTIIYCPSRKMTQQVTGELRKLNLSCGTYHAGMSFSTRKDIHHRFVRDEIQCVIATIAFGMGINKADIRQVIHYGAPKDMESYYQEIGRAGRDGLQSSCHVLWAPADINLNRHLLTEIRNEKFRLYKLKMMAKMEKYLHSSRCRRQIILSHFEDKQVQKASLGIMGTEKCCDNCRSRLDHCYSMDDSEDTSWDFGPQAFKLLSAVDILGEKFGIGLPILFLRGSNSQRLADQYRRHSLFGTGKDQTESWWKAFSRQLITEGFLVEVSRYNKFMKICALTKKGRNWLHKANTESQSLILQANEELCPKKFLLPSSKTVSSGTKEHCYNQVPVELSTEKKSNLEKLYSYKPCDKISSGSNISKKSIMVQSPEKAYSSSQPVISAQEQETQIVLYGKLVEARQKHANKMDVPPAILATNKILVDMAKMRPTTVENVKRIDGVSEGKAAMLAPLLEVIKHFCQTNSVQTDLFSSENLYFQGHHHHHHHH

In the case of `CCc1c(N2CCN(C(=O)c3c(OC)ncc(C)c3O)C[C@@H]2C)c(=O)c2nc(N(C)C)cnc2n1CC(=O)Nc1ccc(C(F)(F)F)cc1Cl` [I-228, N-[2-chloro-4-(trifluoromethyl)phenyl]-2-[2-(dimethylamino)-6-ethyl-7-[(2S)-4-(4-hydroxy-2-methoxy-5-methylpyridine-3-carbonyl)-2-methylpiperazin-1-yl]-8-oxo-5H,8H-pyrido[2,3-b]pyrazin-5-yl]acetamide], the IC50 [1] is reported as 0.005 to 0.05 µM and the EC50 [2] is reported as under 0.5 µM.
`CCc1c(C23CCN(C(=O)c4ncnc(C)c4O)CC2C3)c(=O)c2nc(N(C)C)cnc2n1CC(=O)Nc1ccc(C(F)(F)F)cc1Cl` (stereo not shown) [I-229, N-[2-chloro-4-(trifluoromethyl)phenyl]-2-[2-(dimethylamino)-6-ethyl-7-[3-(5-hydroxy-6-methylpyrimidine-4-carbonyl)-3-azabicyclo[4.1.0]heptan-6-yl]-8-oxo-5H,8H-pyrido[2,3-b]pyrazin-5-yl]acetamide] gave an IC50 [1] of 0.005 to 0.05 µM and an EC50 [2] of 0.5 to 2 µM.
In the case of `CCc1c(N2CCN(C(=O)c3ncnc(C)c3O)[C@H]3CC[C@@H]32)c(=O)c2nc(N(C)C)cnc2n1CC(=O)Nc1cc(F)c(C(F)(F)F)cc1C` [I-236, 2-[2-(dimethylamino)-6-ethyl-7-[(1S,6S)-5-(5-hydroxy-6-methylpyrimidine-4-carbonyl)-2,5-diazabicyclo[4.2.0]octan-2-yl]-8-oxo-5H,8H-pyrido[2,3-b]pyrazin-5-yl]-N-[5-fluoro-2-methyl-4-(trifluoromethyl)phenyl]acetamide], the IC50 [1] is reported as 0.005 to 0.05 µM and the EC50 [2] is reported as under 0.5 µM.
With `CCc1c(N2CCN(C(=O)c3c(OC)ncc(C)c3O)CC2)c(=O)c2nc(C3CC3)cnc2n1CC(=O)Nc1ccc(C(F)(F)F)cc1Cl` [I-239, N-[2-chloro-4-(trifluoromethyl)phenyl]-2-{2-cyclopropyl-6-ethyl-7-[4-(4-hydroxy-2-methoxy-5-methylpyridine-3-carbonyl)piperazin-1-yl]-8-oxo-5H,8H-pyrido[2,3-b]pyrazin-5-yl} acetamide] the IC50 [1] was 0.005 to 0.05 µM and the EC50 [2] was under 0.5 µM.
For `CCc1c(N2CCN(C(=O)c3ncnc(C)c3O)[C@H]3CC[C@@H]32)c(=O)c2nc(N(C)C)cnc2n1CC(=O)Nc1ccc(C(F)F)cc1Cl` [I-240, N-[2-chloro-4-(difluoromethyl)phenyl]-2-[2-(dimethylamino)-6-ethyl-7-[(1S,6S)-5-(5-hydroxy-6-methylpyrimidine-4-carbonyl)-2,5-diazabicyclo[4.2.0]octan-2-yl]-8-oxo-5H,8H-pyrido[2,3-b]pyrazin-5-yl]acetamide], the IC50 [1] was 0.005 to 0.05 µM and the EC50 [2] was under 0.5 µM.
Work on `CCc1c(N2CCN(C(=O)c3ncnc(C)c3O)[C@H]3CC[C@@H]32)c(=O)c2nc(-c3ccnn3C)cnc2n1CC(=O)Nc1ccc(C(F)(F)F)cc1Cl` [I-241, N-[2-chloro-4-(trifluoromethyl)phenyl]-2-{6-ethyl-7-[(1S,6S)-5-(5-hydroxy-6-methylpyrimidine-4-carbonyl)-2,5-diazabicyclo[4.2.0]octan-2-yl]-2-(1-methyl-1H-pyrazol-5-yl)-8-oxo-5H,8H-pyrido[2,3-b]pyrazin-5-yl}acetamide] yielded an IC50 [1] of at most 0.005 µM and an EC50 [2] of under 0.5 µM.
`CCc1c(N2CCN(C(=O)c3ncnc(C)c3O)[C@H]3CC[C@@H]32)c(=O)c2nc(N3CC(OC)C3)cnc2n1CC(=O)Nc1ccc(C(F)(F)F)cc1Cl` [I-242, N-[2-chloro-4-(trifluoromethyl)phenyl]-2-{6-ethyl-7-[(1S,6S)-5-(5-hydroxy-6-methylpyrimidine-4-carbonyl)-2,5-diazabicyclo[4.2.0]octan-2-yl]-2-(3-methoxyazetidin-1-yl)-8-oxo-5H,8H-pyrido[2,3-b]pyrazin-5-yl}acetamide] gave an IC50 [1] of 0.005 to 0.05 µM and an EC50 [2] of under 0.5 µM.
For `CCc1c(N2CCN(C(=O)c3c(OC)ncc(C)c3O)[C@H]3CCC[C@@H]32)c(=O)c2nc(N(C)C)cnc2n1CC(=O)Nc1ccc(C(F)(F)F)cc1Cl` [I-243, 2-{7-[(4aS,7aS)-4-(4-hydroxy-2-methoxy-5-methylpyridine-3-carbonyl)-octahydro-1H-cyclopenta[b]pyrazin-1-yl]-2-(dimethylamino)-6-ethyl-8-oxo-5H,8H-pyrido[2,3-b]pyrazin-5-yl}-N-[2-chloro-4-(trifluoromethyl)phenyl]acetamide], the IC50 [1] was 0.005 to 0.05 µM and the EC50 [2] was under 0.5 µM.

Reference: US20250034136A1 (Nimbus Wadjet, Inc., priority 2023, published 2025)
